≈ marks a conversion by molar mass, not a printed value. One block for each compound: values may come before it.
Legend:
[1] = test system: IL-6 production by MonoMac-6 cells; assay: LPS-induced IL-6 production; format: cell-based, human; conditions: for IL-6 IC50: MonoMac-6 cells, 250 ng/ml LPS, 24 h, N.A. = no inhibition at concentrations <40 µM; for inhibition of LPS-induced IL-6 production: concentrations up to 50 µM
[2] = test system: NF-κB/AP-1 reporter activity in THP-1Blue cells; assay: LPS-induced NF-κB/AP-1 alkaline phosphatase reporter assay; format: cell-based, human; conditions: for inhibition of LPS-induced NF-κB/AP-1 activity: concentrations up to 50 µM
JNK3 = JNK3 (Homo sapiens, UniProt P53779); assay: KINOMEscan competition binding, JNK3; conditions: N.A. = no inhibition at concentrations <40 µM
JNK2 = JNK2 (Homo sapiens, UniProt P45984); assay: KINOMEscan competition binding, JNK2; conditions: N.A. = no inhibition at concentrations <40 µM
Solubility in DMSO = format: physicochemical; conditions: organic solvent or mixture
TRKA = TRKA (Homo sapiens, UniProt P04629); conditions: ref [29], [30]; cited from earlier work
[3] = test system: c-Jun phosphorylation in MonoMac-6 cells; assay: c-Jun; format: cell-based, human; conditions: 30 min pretreatment, LPS 250 ng/ml 30 min
[4] = THP-1Blue cells, 250 ng/ml LPS, 24 h, N.A. = no inhibition at concentrations <40 µM

TRKA, sequence (P04629 33-796): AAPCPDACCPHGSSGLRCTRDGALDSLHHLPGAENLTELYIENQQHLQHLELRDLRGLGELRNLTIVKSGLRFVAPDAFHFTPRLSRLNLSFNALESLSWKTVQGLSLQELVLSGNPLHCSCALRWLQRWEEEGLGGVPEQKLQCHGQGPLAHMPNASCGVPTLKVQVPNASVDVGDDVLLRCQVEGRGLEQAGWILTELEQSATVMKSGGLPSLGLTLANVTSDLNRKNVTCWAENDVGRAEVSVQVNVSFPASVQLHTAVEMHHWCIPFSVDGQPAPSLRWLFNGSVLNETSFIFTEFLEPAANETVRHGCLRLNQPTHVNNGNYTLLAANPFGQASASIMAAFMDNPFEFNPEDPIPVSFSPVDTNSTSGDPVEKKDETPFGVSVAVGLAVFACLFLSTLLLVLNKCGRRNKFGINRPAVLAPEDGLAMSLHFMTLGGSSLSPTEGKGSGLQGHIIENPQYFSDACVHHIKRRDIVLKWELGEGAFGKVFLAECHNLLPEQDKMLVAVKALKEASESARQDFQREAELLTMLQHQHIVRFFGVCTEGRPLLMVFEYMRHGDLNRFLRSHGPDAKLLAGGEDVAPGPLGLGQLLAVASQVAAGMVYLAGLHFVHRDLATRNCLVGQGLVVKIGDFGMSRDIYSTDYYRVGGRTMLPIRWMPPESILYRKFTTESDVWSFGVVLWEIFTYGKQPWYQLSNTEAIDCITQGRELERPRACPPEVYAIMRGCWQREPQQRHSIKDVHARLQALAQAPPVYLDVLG
JNK2, sequence (P45984 whole entry): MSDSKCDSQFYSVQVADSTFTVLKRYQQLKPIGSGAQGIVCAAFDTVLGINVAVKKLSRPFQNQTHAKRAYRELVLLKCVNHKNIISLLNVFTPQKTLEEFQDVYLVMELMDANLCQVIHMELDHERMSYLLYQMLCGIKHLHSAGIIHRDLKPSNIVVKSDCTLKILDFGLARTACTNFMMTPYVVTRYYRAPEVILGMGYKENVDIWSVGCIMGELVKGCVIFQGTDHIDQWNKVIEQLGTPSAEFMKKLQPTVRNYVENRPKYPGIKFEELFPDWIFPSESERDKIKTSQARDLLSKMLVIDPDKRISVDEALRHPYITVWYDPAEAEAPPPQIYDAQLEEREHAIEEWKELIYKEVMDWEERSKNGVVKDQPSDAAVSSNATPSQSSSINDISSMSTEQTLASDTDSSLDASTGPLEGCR
JNK3, sequence (P53779 whole entry): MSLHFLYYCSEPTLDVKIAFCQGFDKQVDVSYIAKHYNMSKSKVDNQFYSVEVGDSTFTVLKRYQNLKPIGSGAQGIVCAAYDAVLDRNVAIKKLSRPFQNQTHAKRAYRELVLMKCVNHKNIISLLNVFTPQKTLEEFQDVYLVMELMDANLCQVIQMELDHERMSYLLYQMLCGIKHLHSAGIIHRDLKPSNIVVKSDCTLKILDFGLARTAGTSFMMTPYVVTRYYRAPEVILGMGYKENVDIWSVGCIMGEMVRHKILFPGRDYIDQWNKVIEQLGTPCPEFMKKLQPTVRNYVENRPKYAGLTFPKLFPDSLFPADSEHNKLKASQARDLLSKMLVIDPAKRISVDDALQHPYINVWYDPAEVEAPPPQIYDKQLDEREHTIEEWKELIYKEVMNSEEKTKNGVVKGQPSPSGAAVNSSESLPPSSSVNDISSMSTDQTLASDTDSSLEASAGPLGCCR

IL-6 IC50 [1]: did not inhibit
NF-κB/AP-1 IC50 [2, 4]: did not inhibit
Compound: [Na+].[O-]/N=C1/c2ccccc2-c2nc3c(Cl)cc(Cl)cc3nc21 [6b, 6,8-Dichloro-11H-indeno[2,3-b]quinoxalin-11-one oxime]

Compound: O=C1c2ccccc2-n2c1nc1ccccc1c2=O [Trp, tryptanthrin, reference compound]
inhibition of LPS-induced IL-6 production [1]: did not inhibit
JNK3 Kd (JNK3): inactive
JNK2 Kd (JNK2): inactive
inhibition of LPS-induced NF-κB/AP-1 activity [2]: did not inhibit

solubility (Solubility in DMSO): ~10 mM (≈ 2470 µg/mL)
Compound: O/N=C1\c2ccccc2-c2nc3ccccc3nc21 [IQ-1, 11H-indeno[1,2-b]quinoxalin-11-one oxime]
binding to TRK-A (TRKA): did not bind

Compound: O=C(O/N=C1\c2ccccc2-c2nc3ccccc3nc21)c1ccco1 [IQ-3]
binding to TRK-A (TRKA): did not bind

Compound: O=C1c2ccccc2-c2nc3ccncc3nc21 [compound 5, 10H-Indeno[1,2-b]pyrido[3,4-e]pyrazin-10-one]
inhibition of LPS-induced IL-6 production [1]: did not inhibit
inhibition of LPS-induced NF-κB/AP-1 activity [2]: did not inhibit

Compound: O=C1c2ccccc2-c2nc3ncccc3nc21 [3a, 6H-Indeno[1,2-b]pyrido[3,2-e]pyrazin-6-one]
inhibition of LPS-induced IL-6 production [1]: did not inhibit
inhibition of LPS-induced NF-κB/AP-1 activity [2]: did not inhibit

IC50 ([2]; read-out: NF-κB/AP-1 IC50, THP-1Blue cells, 250 ng/ml LPS, 24 h, N.A. = no inhibition at concentrations <40 µM): 3.4 ± 0.5 µM
Compound: anthra[1–9-cd]pyrazol-6(2H)-one [SP600125, reference compound]

Compound: CCOC(=O)CO/N=C1\c2ccccc2-c2nc3ccccc3nc21 [10c, 11H-Indeno[1,2-b]quinoxalin-11-one O-(O-ethylcarboxymethyl) oxime]
inhibition of c-Jun phosphorylation [3]: inhibited c-Jun phosphorylation

IL-6 IC50 [1]: did not inhibit
NF-κB/AP-1 IC50 [2, 4]: did not inhibit
Compound: [Na+].[O-]/N=C1/c2ccccc2-c2nc3ccc(C(F)(F)F)cc3nc21 [6h, 8-Trifluoromethyl-11H-indeno[2,3-b]quinoxalin-11-one oxime]
